Measured values: patent US8110605B2, “Compound for inactivating viruses and bacteria and method of making same” (priority 2009, dated 2012)
Like-named read-outs stand apart in the source and are kept apart here.

Assays:
[1] = test system: MDCX cells
[2] = test system: Influenza virus H1N1 subtype (A/WSN/33); type: cell-based
[3] = test system: H5N2 avian influenza virus (TW1209/04(H5N2)AIV); type: cell-based
[4] = test system: avian influenza virus (AIV) subtype H5N2 (TW1209/04(H5N2)AIV) virions
[5] = test system: MDCK cells
[6] = test system: Staphylococcus aureus strain (ATCC-25923); test: Proliferation suppression of Staphylococcus aureus, MIC by broth dilution; type: cell-based; parameters: key to MIC of S. aureus: +: Proliferation of S. aureus,; −: Antibacterial effect of S. aureus; details: 10^4 CFU/mL
[7] = test system: H5N2 avian influenza virus (TW1209/04(H5N2)AIV); type: cell-based; remark: listed apart in the source
[8] = test system: H5N1 avian influenza virus (TW1209/03(H5N1)AIV); type: cell-based
[9] = test system: H5N1 avian influenza virus (TW1209/03(H5N1)AIV); type: cell-based; remark: listed apart in the source
[10] = test system: MDCK cells; remark: listed apart in the source
[11] = test system: Enterovirus type 71 (EV-71) virions; test: AFM of Enterovirus type 71 virions treated with the compound; details: for maximum height of virus particles (AFM cursor profile): 5-10 minutes, native virion 75.23 nm; for calculated RMS height of treated particles: over 60 virus particles
[12] = test system: MDCK cells; remark: listed apart in the source

## O=C(O)C(CCCCCCCCCCS)C(=O)O [2-(10-mercaptodecyl)-propanedioic acid]
[1]; 3 ppm
  CPE, compound only: −
[1]; 10 ppm
  CPE, compound only: −
[1]; 30 ppm
  CPE, compound only: −
[1]; 100 ppm
  CPE, compound only: −
[1]; 300 ppm
  CPE, compound only: −
[1]; 1,000 ppm
  CPE, compound only: CTX
[1]; 3,000 ppm
  CPE, compound only: CTX
[1]; dog
  concentration at which cytotoxicity occurred: exceeding 1,000 ppm
  concentration causing no cytotoxicity: less than 300 ppm
[2]
  concentration protecting cells against infection by influenza virus H1N1 subtype (as low as): 30 ppm
[2]; 3 ppm
  CPE, H1N1 influenza virus treated with compound: +
[2]; 30 ppm
  CPE, H1N1 influenza virus treated with compound: −
[2]; 100 ppm
  CPE, H1N1 influenza virus treated with compound: −
[2]; 300 ppm
  CPE, H1N1 influenza virus treated with compound: −
[2]; 1,000 ppm
  CPE, H1N1 influenza virus treated with compound: CTX
[2]; 3,000 ppm
  CPE, H1N1 influenza virus treated with compound: CTX
[3]
  concentration protecting RBC cells to sustain no agglutination (HA testing, H5N2): above 1,000 ppm
[3]; 3 ppm
  HA, H5N2 avian influenza virus treated with compound: +
[3]; 10 ppm
  HA, H5N2 avian influenza virus treated with compound: +
[3]; 30 ppm
  HA, H5N2 avian influenza virus treated with compound: +
[3]; 100 ppm
  HA, H5N2 avian influenza virus treated with compound: −
[3]; 300 ppm
  HA, H5N2 avian influenza virus treated with compound: −
[3]; 1,000 ppm
  HA, H5N2 avian influenza virus treated with compound: CTX
[3]; 3,000 ppm
  HA, H5N2 avian influenza virus treated with compound: CTX
[4]
  viral morphology by AFM: broken down and flattened
[4]; 100 ppm
  calculated RMS height of treated particles: 14.29±0.87 nm
[4]; 1,000 ppm
  calculated RMS height of treated particles: 5.62±0.53 nm
[5]; 3 ppm
  CPE, compound only: −
[5]; 10 ppm
  CPE, compound only: −
[5]; 30 ppm
  CPE, compound only: −
[5]; 100 ppm
  CPE, compound only: −
[5]; 300 ppm
  CPE, compound only: −
[5]; 1,000 ppm
  CPE, compound only: CTX
[5]; 3,000 ppm
  CPE, compound only: CTX
[6]; Staphylococcus aureus, ATCC25923, broth dilution method, read-out: final concentration suppressing proliferation of S. aureus (MIC)
  MIC: 20 µg/mL
[6]; final concentration 5 ppm
  MIC of S. aureus: +
[6]; final concentration 10 ppm
  MIC of S. aureus: +
[6]; final concentration 20 ppm
  MIC of S. aureus: −
[6]; final concentration 50 ppm
  MIC of S. aureus: −
[6]; final concentration 100 ppm
  MIC of S. aureus: −
[6]; final concentration 200 ppm
  MIC of S. aureus: −
[7]
  concentration protecting cells against H5N2 influenza virus infection: above 1,000 ppm
[7]; 3 ppm
  CPE, H5N2 avian influenza virus treated with compound: +
[7]; 10 ppm
  CPE, H5N2 avian influenza virus treated with compound: +
[7]; 30 ppm
  CPE, H5N2 avian influenza virus treated with compound: +
[7]; 100 ppm
  CPE, H5N2 avian influenza virus treated with compound: −
[7]; 300 ppm
  CPE, H5N2 avian influenza virus treated with compound: −
[7]; 1,000 ppm
  CPE, H5N2 avian influenza virus treated with compound: CTX
[7]; 3,000 ppm
  CPE, H5N2 avian influenza virus treated with compound: CTX
[8]
  concentration protecting cells against H5N1 influenza virus infection: above 1,000 ppm
[8]; 3 ppm
  CPE, H5N1 avian influenza virus treated with compound: +
[8]; 10 ppm
  CPE, H5N1 avian influenza virus treated with compound: +
[8]; 30 ppm
  CPE, H5N1 avian influenza virus treated with compound: +
[8]; 100 ppm
  CPE, H5N1 avian influenza virus treated with compound: −
[8]; 300 ppm
  CPE, H5N1 avian influenza virus treated with compound: −
[8]; 1,000 ppm
  CPE, H5N1 avian influenza virus treated with compound: CTX
[8]; 3,000 ppm
  CPE, H5N1 avian influenza virus treated with compound: CTX
[9]
  concentration protecting RBC cells to sustain no agglutination (HA testing, H5N1): above 1,000 ppm
[9]; 3 ppm
  HA, H5N1 avian influenza virus treated with compound: +
[9]; 10 ppm
  HA, H5N1 avian influenza virus treated with compound: +
[9]; 30 ppm
  HA, H5N1 avian influenza virus treated with compound: +
[9]; 100 ppm
  HA, H5N1 avian influenza virus treated with compound: −
[9]; 300 ppm
  HA, H5N1 avian influenza virus treated with compound: −
[9]; 1,000 ppm
  HA, H5N1 avian influenza virus treated with compound: CTX
[9]; 3,000 ppm
  HA, H5N1 avian influenza virus treated with compound: CTX
[10]; 3 ppm
  CPE, compound only: −
[10]; 10 ppm
  CPE, compound only: −
[10]; 30 ppm
  CPE, compound only: −
[10]; 100 ppm
  CPE, compound only: −
[10]; 300 ppm
  CPE, compound only: −
[10]; 1,000 ppm
  CPE, compound only: CTX
[10]; 3,000 ppm
  CPE, compound only: CTX
[11]; 30 and 1,000 ppm, FIGS. 5B and 5C
  viral morphology by AFM: broken down and flattened
[11]; 30 ppm, FIG. 5B′
  maximum height of virus particles (AFM cursor profile): ~10.35 nm
[11]; 30 ppm
  calculated RMS height of treated particles: 10.49±0.52 nm
[11]; 1,000 ppm, FIG. 5C′
  maximum height of virus particles (AFM cursor profile): ~8.41 nm
[11]; 1,000 ppm
  calculated RMS height of treated particles: 8.35±0.63 nm
[12]; 3 ppm
  CPE, compound only: −
[12]; 10 ppm
  CPE, compound only: −
[12]; 30 ppm
  CPE, compound only: −
[12]; 100 ppm
  CPE, compound only: −
[12]; 300 ppm
  CPE, compound only: −
[12]; 1,000 ppm
  CPE, compound only: CTX
[12]; 3,000 ppm
  CPE, compound only: CTX
